Legend:
[1] = system: RAD51; assay: Western blot of RAD51 expression in TNBC cells; assay type: cell-based, human; settings: alone, 24 h, TNBC cell lines
Experimental: Western blot analysis was performed as previously described, and all western blot analyses were performed at least three times.
Western blot analysis was performed as previously described. Briefly, whole cell or tissue lysates were prepared using ice-cold Nonidet P-40 buffer mixed with protease and phosphatase inhibitors (Roche, IN, USA) and centrifuged at 14,000 × g at 4 °C for 10 min. The protein lysates were fractionated by sodium dodecyl sulfate–polyacrylamide gel electrophoresis (SDS–PAGE) and transferred to polyvinylidene fluoride (PVDF) membranes (Merck, Darmstadt, Germany). Membranes were incubated in 1× TBST buffer containing 5% nonfat powdered milk at room temperature for 2 h. The indicated primary antibody was incubated with PVDF membranes, followed by a washing step using 1× TBST and a secondary antibody conjugated to HRP. Signal detection was carried out using the Western ECL Substrate kit (Bio-Rad, Hercules, CA, USA). […]

[2] = system: MDA-MB-468 cells; assay: MTT cell viability assay, MDA-MB-468; settings: Homo sapiens, MDA-MB-468, 72 h, read-out: IC50 MDA-MB-468
Experimental: (§3) The viability assay was measured by a 3-(4,5-dimethylthiazol-2-yl)−2,5-diphenyltetrazolium bromide (MTT) assay.
(§4) In brief, cells were seeded at a density of 6,000 cells in 96-well plates and cultured overnight. […] After aspiration of the medium, the formazan crystals were dissolved in 100 μL of DMSO. The absorbance at 490 nm was measured using a microplate reader (BioTek). All these analyses were performed at least three times.

[3] = system: MDA-MB-231 cells; assay: MTT cell viability assay, MDA-MB-231; settings: Homo sapiens, MDA-MB-231, 72 h, read-out: IC50 MDA-MB-231
Experimental: as §3, §4

[4] = system: MCF-10A cells; assay: MTT cell viability assay, MCF-10A; settings: Homo sapiens, 72 h, read-out: IC50 MCF-10A
Experimental: as §3, §4

[5] = system: MDA-MB-436 cells; assay: MTT cell viability assay, MDA-MB-436; settings: Homo sapiens, MDA-MB-436, 72 h, read-out: IC50 MDA-MB-436
Experimental: as §3, §4

[6] = system: MCF-7 cells; assay: MTT cell viability assay, MCF-7; settings: Homo sapiens, MCF7, 72 h, read-out: IC50 MCF-7
Experimental: as §3, §4

[7] = target: T1, recombinant HDAC1 (Homo sapiens, UniProt Q13547); assay: HDAC1 inhibition assay (Ac-peptide-AMC fluorescence); assay type: biochemical
T1 construct: purchased Active Motif
Experimental: (§1) The in vitro HDAC inhibition assays were carried out by Sundia MediTech Co. Ltd. in Shanghai, China. […] Reactions were stopped with trypsin, and the samples were incubated for another 90 min at 37 °C. […] IC50 values were obtained using GraphPad Prism software.

[8] = target: T2, PARP1 (Homo sapiens, UniProt P09874); assay: PARP1 enzymatic inhibition assay (PARP1 Colorimetric Assay Kit); assay type: biochemical
T2 construct: purchased BPS Bioscience 80580
Experimental: (§2) Briefly, the 1× histone mixture was added to each well and incubated overnight at 4 °C. Each well was washed three times with 200 µL 1× TBST buffer and filled with 200 µL Blocking buffer at room temperature for 90 min. Then, each well was filled with 25 µL of PARP master mixture (5 μL activated DNA + 2.5 μL 10× PARP Assay mixture + 2.5 μL 10× PARP buffer + 15 μL distilled water). Next, 5 µL of the compound of different concentrations was added to each well, and PARP enzyme was added and incubated at room temperature for 1 h. Next, streptavidin HRP solution was added and incubated at room temperature for 30 min. After adding 100 µL of colorimetric HRP substrate to each well, the plate was incubated until a blue color developed in the positive well, which contained PARP enzyme without inhibitors. The reaction was then quenched with 2 M sulfuric acid, and absorbance at 450 nm was measured using a microplate reader (BioTek, Winooski, VT, USA). After calculating the inhibition rate, the IC50 value was determined.

[9] = target: T3, recombinant HDAC6 (Homo sapiens, UniProt Q9UBN7); assay: HDAC6 inhibition assay (Ac-peptide-AMC fluorescence); assay type: biochemical
T3 construct: purchased BPS Bioscience
T3 sequence (Q9UBN7 1-1215): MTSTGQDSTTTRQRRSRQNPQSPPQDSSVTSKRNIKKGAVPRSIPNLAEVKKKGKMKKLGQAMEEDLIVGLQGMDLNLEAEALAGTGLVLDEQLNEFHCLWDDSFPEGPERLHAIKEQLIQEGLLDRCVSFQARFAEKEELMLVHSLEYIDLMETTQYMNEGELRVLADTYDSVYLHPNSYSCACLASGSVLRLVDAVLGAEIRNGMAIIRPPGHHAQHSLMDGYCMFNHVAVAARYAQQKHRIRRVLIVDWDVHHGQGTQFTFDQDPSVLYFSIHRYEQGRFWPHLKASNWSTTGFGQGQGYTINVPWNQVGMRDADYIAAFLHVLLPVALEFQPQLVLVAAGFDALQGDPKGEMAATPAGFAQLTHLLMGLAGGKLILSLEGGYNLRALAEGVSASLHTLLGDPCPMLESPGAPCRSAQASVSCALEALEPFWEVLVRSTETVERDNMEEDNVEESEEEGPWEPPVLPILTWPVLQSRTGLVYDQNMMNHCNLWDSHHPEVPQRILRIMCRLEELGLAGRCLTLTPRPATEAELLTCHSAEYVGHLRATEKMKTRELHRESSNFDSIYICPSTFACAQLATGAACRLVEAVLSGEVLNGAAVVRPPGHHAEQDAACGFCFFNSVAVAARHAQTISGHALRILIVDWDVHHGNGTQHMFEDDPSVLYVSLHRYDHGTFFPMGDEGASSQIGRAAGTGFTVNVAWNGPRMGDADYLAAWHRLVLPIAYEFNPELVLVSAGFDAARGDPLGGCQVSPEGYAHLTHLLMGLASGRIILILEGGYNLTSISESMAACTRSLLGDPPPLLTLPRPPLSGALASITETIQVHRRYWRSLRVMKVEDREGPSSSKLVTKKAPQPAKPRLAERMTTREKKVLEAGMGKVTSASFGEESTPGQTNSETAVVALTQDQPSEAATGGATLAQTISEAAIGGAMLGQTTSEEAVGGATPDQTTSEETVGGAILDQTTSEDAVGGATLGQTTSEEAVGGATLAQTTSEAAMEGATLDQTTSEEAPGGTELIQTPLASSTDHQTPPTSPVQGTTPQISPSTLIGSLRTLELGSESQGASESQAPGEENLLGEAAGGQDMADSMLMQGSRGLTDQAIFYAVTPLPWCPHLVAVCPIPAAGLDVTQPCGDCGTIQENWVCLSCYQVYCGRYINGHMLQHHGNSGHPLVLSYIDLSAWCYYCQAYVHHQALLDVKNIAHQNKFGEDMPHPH
Experimental: as §1

[10] = target: T4, PARP2 (Homo sapiens, UniProt Q9UGN5); assay: PARP2 enzymatic inhibition assay (PARP2 Colorimetric Assay Kit); assay type: biochemical
T4 construct: purchased BPS Bioscience 80581
Experimental: as §2

[11] = system: MDA-MB-436, MDA-MB-231, and MDA-MB-468 cells; assay: Colony formation assay; assay type: cell-based, human; settings: low dose
Experimental: MDA-MB-231, MDA-MB-436 and MDA-MB-468 cells were seeded at a density of 2,000 cells in 6-well plates and cultured overnight. […] The cells were fixed with 4% paraformaldehyde (Merck) for 1 h at room temperature and stained with 0.1% crystal violet (Beyotime Biotechnology) for 30 min. Under an inverted phase contrast microscope (Leica Microsystems, Heidelberg, Germany), cell colonies were photographed at 5× magnification. All these analyses were performed at least three times.

[12] = system: CCL5 and CXCL10 mRNA; assay: RT-PCR of CCL5 and CXCL10 mRNA; assay type: cell-based, human; settings: MDA-MB-436 and MDA-MB-468 cells, 48 h
Experimental: Total RNA was extracted using the Eastep Super Total RNA Extraction Kit (Promega, Charbonnières, France) according to the manufacturer’s protocol. Reverse transcription was performed using HyperScript RT SuperMix for qPCR (APExBIO, Houston, TX, USA). Gene expression was quantified with Hieff qPCR SYBR Green Master Mix (Yeason) on an ABI 7500 (Applied Biosystems, Grand Island, NY, USA). Data were then analyzed using the 2^-ΔΔCT method. The primers were designed and synthesized by Sangon Biotech, and the sequences are shown in Supporting Information Table S1.

T1 sequence (Q13547 whole entry): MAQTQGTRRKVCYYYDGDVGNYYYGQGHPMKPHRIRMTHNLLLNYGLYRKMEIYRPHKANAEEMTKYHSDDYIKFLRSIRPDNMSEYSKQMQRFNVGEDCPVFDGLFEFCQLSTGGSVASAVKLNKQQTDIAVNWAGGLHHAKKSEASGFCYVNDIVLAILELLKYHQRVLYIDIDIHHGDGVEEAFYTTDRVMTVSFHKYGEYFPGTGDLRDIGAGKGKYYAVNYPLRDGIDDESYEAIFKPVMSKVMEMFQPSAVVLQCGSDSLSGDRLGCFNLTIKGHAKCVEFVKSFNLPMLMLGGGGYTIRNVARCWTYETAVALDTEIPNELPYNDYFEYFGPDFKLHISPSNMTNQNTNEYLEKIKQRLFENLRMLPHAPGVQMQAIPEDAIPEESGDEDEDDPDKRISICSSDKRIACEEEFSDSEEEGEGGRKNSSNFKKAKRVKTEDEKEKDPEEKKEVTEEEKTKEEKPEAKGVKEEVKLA
T4 sequence (Q9UGN5 whole entry): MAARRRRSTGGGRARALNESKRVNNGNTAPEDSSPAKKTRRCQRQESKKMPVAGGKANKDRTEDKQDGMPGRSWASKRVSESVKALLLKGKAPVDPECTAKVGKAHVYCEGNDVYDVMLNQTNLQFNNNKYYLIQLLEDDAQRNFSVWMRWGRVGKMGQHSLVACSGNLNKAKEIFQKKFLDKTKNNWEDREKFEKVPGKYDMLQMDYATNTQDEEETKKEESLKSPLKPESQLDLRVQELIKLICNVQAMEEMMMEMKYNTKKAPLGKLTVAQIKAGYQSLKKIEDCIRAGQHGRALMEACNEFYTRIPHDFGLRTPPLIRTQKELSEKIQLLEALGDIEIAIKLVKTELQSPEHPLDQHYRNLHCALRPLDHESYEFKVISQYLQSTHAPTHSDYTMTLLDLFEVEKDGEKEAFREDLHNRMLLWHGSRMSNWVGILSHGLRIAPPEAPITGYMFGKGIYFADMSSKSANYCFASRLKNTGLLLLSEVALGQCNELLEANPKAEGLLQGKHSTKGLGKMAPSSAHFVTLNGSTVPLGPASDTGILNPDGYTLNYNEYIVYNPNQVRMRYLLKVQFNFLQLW
T2 sequence (P09874 whole entry): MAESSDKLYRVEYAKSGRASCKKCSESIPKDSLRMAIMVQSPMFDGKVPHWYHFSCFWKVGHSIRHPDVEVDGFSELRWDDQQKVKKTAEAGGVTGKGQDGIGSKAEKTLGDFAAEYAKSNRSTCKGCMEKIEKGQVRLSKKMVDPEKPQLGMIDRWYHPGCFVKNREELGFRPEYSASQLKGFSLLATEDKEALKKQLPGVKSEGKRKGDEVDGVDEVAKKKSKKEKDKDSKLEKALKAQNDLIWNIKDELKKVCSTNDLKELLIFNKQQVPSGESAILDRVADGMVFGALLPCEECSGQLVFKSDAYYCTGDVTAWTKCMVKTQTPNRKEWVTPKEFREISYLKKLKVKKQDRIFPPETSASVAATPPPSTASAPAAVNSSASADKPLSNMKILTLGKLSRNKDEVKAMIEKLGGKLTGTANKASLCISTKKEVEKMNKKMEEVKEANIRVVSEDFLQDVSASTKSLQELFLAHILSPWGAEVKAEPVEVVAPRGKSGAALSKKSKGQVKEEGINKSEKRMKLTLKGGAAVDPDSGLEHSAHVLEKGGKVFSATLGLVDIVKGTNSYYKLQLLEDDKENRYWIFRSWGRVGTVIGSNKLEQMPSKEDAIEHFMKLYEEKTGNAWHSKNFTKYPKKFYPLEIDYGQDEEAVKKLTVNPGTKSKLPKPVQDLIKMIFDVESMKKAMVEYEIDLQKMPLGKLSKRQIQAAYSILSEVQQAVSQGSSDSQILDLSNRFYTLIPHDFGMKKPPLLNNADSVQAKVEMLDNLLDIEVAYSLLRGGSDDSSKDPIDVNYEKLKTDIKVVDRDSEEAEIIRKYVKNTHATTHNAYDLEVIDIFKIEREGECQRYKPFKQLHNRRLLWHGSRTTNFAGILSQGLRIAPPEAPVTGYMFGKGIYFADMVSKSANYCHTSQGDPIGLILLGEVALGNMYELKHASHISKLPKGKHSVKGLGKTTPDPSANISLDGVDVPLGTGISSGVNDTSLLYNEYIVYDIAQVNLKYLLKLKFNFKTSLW

Compound | IC50 [2] [nM] | IC50 [3] [nM] | IC50 [5] [nM] | IC50 [6] [µM] | IC50 [7] [µM] | IC50 [8] [nM] | IC50 [9] [µM] | IC50 [10] [nM] | RAD51 expression [1] | IC50 [4] [µM] | clonogenicity ([11]; BRCA1- and HRR-deficient MDA-MB-436 cells) | clonogenicity ([11]; MDA-MB-231 and MDA-MB-468 cells) | mRNA levels of CCL5 and CXCL10 [12]
Nc1cc(F)ccc1NC(=O)c1ccc(CNC(=O)/C=C/c2cccnc2)cc1 [Chidamide, chidamide, reference compound] | 750 ± 220 | 2340 ± 920 | 4150 ± 920 | 4.6 ± 0.78 |  |  |  |  | reduced the expression of RAD51 | > 50 |  |  | 
Nc1cc(F)ccc1NC(=O)CN1CCN(C(=O)c2cc(Cc3n[nH]c(=O)c4ccccc34)ccc2F)CC1 [Compound B402] |  |  |  |  | > 10 |  | > 10 |  |  |  |  |  | 
Nc1ccccc1NC(=O)CCN1CCN(C(=O)c2cc(Cc3n[nH]c(=O)c4ccccc34)ccc2F)CC1 [Compound B501] |  |  |  |  | > 10 |  | > 10 |  |  |  |  |  | 
Nc1cc(F)ccc1NC(=O)CCN1CCN(C(=O)c2cc(Cc3n[nH]c(=O)c4ccccc34)ccc2F)CC1 [Compound B502] |  |  |  |  | > 10 |  | > 10 |  |  |  |  |  | 
Nc1ccccc1NC(=O)CCCN1CCN(C(=O)c2cc(Cc3n[nH]c(=O)c4ccccc34)ccc2F)CC1 [Compound B601] |  |  |  |  | > 10 |  | > 10 |  |  |  |  |  | 
O=C(c1cc(Cc2n[nH]c(=O)c3ccccc23)ccc1F)N1CCN(C(=O)C2CC2)CC1 [Olaparib, olaparib, reference compound] | 14500 ± 2440 | 3240 ± 2200 | 8080 ± 2020 | > 25 |  |  |  |  |  | 28 ± 3.48 | reduced the clonogenicity | this effect was not observed | rise in the mRNA levels of CCL5 and CXCL10

The next lines start with results.

IC50 [2] [nM] | IC50 [3] [nM] | IC50 [5] [nM] | IC50 [6] [µM] | IC50 [7] [µM] | IC50 [8] [nM] | IC50 [9] [µM] | IC50 [10] [nM] | Compound | RAD51 expression [1] | IC50 [4] [µM] | clonogenicity ([11]; BRCA1- and HRR-deficient MDA-MB-436 cells) | clonogenicity ([11]; MDA-MB-231 and MDA-MB-468 cells) | mRNA levels of CCL5 and CXCL10 [12]
300 ± 50 | 410 ± 10 | 530 ± 80 | 3.62 ± 1.21 | 0.12 | 13.2 | > 10 | 4.08 | Nc1ccccc1NC(=O)/C=C/c1ccc(CN2CCN(C(=O)c3cc(Cc4n[nH]c(=O)c5ccccc45)ccc3F)CC2)cc1 [Compound B101] |  | 1.45 ± 0.09 |  |  | 
1350 ± 550 | 380 ± 80 | 970 ± 730 | 5.3 ± 1.23 | 0.06 | 7.55 | > 10 | 13.8 | Nc1ccccc1NC(=O)Cc1ccc(CN2CCN(C(=O)c3cc(Cc4n[nH]c(=O)c5ccccc45)ccc3F)CC2)cc1 [Compound B201] |  | 14 ± 2.45 |  |  | 
560 ± 100 | 460 ± 120 | 650 ± 140 | 15.6 ± 3.52 | 0.16 | 10.3 | > 10 | 34.2 | Nc1cc(F)ccc1NC(=O)Cc1ccc(CN2CCN(C(=O)c3cc(Cc4n[nH]c(=O)c5ccccc45)ccc3F)CC2)cc1 [Compound B202] |  | 9.83 ± 0.75 |  |  | 
1750 ± 370 | 1960 ± 630 | 1730 ± 820 | 3.53 ± 1.11 | > 10 | 11.4 | > 10 | 70.4 | Nc1ccccc1NC(=O)CCc1ccc(CN2CCN(C(=O)c3cc(Cc4n[nH]c(=O)c5ccccc45)ccc3F)CC2)cc1 [Compound B301] |  | 30.1 ± 9.8 |  |  | 
 |  |  |  | > 10 |  | > 10 |  | Nc1ccccc1NC(=O)CN1CCN(C(=O)c2cc(Cc3n[nH]c(=O)c4ccccc34)ccc2F)CC1 [Compound B401] |  |  |  |  | 
 |  |  |  | > 10 |  | > 10 |  | Nc1cc(F)ccc1NC(=O)CCCN1CCN(C(=O)c2cc(Cc3n[nH]c(=O)c4ccccc34)ccc2F)CC1 [Compound B602] |  |  |  |  | 
